Among the data in patent publication US11072612B2, “NLRP3 modulators” (INNATE TUMOR IMMUNITY, INC., priority 2016, dated 2021) are EC50 values, retold here.

Holding throughout (format): cell-based
One test has as its target T1, hNLRP3 (Homo sapiens, UniProt Q96P20).
T1 construct: THP-1 cells were purchased from the American Type Culture Collection; host or cells: THP-1 cells, PMA-differentiated
The test is described as follows: hNLRP3 agonist assay: IL-1β production in PMA-differentiated THP-1 cells (ELISA). As to conditions: Table 2, 4 hours, IL-1β by ELISA. The procedure:
THP-1 cells were purchased from the American Type Culture Collection and sub-cultured according to instructions from the supplier. Prior to experiments, cells were cultured in RPMI 1640 containing 10% heat inactivated FBS, penicillin (100 units/ml) and streptomycin (100 μg/ml), and maintained in log phase prior to experimental setup. Prior to the experiment THP-1 were treated with PMA (Phorbol 12-myristate 13-acetate) (10 μg/ml) for 24 hours. The day of the experiment the media was removed and attaching cells were treated with trypsin for 2 minutes, cells were then collected, washed with PBS (phosphate buffer saline), spin down, resuspended in 2% heat inactivated FBS with RPMI at a concentration of 1×10^6 cells/ml, and 100 μl was plated in a 96 well plate. Cells were incubated with compounds for 4 hours. Cell free supernatant was collected and the production of IL-1β was evaluated by ELISA. Compounds were dissolved in dimethyl sulfoxide (DMSO) and added to the culture medium to achieve desired concentration (e.g. 100, 30, 10, 3, 1, 0.3 or 0.1 μM). A vehicle only control was run concurrently with each experiment. Final DMSO concentration was 1%.
Background: ELISA stands for enzyme-linked immunosorbent assay.

The target in the next test is T2, TLR8 (Homo sapiens, UniProt Q9NR97).
T2 sequence (Q9NR97 27-1041): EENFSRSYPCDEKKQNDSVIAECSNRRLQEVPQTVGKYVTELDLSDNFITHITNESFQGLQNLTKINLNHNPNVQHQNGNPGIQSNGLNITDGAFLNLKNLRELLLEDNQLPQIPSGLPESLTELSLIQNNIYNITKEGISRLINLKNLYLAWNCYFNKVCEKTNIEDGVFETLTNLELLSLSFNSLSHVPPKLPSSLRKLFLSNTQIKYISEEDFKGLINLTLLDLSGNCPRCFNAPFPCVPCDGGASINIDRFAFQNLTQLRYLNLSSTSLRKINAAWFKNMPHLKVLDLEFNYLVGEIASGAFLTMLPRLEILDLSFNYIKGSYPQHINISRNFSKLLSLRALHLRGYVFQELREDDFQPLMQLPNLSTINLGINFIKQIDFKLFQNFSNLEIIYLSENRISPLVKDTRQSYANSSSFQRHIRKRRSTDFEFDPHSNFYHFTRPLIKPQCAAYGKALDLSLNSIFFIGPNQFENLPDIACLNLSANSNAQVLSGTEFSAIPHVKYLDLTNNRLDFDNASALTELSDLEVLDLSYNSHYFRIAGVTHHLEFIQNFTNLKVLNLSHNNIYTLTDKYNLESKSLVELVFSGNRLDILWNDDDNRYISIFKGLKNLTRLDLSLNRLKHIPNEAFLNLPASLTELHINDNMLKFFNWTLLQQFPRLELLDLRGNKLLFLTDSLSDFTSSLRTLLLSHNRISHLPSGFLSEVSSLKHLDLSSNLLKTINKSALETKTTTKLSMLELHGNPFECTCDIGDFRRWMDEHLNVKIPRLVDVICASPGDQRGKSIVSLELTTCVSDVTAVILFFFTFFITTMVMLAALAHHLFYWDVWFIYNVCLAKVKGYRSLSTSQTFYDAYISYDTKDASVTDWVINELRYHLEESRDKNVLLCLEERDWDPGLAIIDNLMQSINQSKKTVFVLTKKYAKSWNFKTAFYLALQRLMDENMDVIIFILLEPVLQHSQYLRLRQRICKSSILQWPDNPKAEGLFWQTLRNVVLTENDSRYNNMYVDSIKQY
The test is described as follows: TLR8 EC50 assay. As to conditions: Table 2.

A further test concerns the target T3, TLR7 (Homo sapiens, UniProt Q9NYK1).
T3 sequence (Q9NYK1 27-1049): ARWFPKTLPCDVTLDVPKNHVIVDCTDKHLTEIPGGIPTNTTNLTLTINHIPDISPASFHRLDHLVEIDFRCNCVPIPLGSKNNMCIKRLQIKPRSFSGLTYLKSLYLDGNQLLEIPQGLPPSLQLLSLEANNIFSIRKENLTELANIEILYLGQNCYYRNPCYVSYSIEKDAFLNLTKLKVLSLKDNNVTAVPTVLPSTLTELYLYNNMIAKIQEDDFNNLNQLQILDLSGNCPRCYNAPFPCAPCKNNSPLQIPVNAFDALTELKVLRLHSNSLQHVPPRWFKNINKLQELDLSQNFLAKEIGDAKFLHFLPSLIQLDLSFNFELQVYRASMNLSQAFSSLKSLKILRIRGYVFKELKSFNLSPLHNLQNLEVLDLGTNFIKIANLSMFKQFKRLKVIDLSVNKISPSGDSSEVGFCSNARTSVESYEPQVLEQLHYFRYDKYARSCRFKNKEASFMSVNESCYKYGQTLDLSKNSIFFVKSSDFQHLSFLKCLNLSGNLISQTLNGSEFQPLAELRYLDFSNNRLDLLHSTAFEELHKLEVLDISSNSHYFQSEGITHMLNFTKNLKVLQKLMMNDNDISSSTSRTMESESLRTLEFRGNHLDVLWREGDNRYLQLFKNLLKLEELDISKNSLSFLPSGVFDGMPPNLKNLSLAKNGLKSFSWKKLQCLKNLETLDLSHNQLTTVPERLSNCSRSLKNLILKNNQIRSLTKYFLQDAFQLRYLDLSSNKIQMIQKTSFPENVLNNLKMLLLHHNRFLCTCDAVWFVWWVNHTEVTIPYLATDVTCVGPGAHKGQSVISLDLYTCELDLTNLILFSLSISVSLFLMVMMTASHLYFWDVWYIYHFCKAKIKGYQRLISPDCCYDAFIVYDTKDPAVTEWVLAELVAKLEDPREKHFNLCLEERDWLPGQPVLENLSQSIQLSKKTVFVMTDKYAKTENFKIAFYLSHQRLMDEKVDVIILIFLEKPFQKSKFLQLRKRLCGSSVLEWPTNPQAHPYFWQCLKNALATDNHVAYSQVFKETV
Nature of the test: TLR7 EC50 assay. As to conditions: Table 2.

T1 sequence (Q96P20 whole entry): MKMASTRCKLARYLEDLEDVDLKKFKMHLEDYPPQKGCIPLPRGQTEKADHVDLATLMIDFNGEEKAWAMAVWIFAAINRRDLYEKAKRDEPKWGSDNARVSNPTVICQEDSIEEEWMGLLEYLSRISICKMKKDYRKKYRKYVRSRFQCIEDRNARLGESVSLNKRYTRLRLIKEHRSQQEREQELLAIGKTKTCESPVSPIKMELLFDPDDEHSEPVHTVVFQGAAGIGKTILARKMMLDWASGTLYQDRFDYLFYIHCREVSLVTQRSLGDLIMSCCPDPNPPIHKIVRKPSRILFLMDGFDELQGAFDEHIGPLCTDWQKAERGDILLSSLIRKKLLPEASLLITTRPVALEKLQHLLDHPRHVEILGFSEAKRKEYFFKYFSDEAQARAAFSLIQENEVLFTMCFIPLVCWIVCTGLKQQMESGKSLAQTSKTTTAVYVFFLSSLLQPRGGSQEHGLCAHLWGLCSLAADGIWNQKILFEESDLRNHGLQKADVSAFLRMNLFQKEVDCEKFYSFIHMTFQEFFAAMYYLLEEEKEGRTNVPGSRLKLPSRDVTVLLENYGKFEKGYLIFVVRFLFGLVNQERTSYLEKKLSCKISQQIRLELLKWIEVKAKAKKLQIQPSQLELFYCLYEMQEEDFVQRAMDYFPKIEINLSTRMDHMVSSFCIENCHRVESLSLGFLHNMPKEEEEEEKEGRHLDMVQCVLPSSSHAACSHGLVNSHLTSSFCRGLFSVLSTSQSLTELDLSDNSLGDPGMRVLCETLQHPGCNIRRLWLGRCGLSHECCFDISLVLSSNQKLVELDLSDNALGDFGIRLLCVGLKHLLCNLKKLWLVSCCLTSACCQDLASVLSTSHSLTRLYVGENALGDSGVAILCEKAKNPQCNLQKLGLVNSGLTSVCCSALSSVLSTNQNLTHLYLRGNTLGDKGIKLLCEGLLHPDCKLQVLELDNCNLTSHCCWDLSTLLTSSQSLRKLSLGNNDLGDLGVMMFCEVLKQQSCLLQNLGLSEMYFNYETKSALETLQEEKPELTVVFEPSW

One may read the EC50 as the midpoint of the concentration-response curve. High values mean weaker potency, low ones greater potency. Consider `CS(=O)(=O)N1CCC(c2nc3c(N)nc4cc(-n5cccn5)ccc4c3[nH]2)CC1` [Compound 114], for which the half-maximal effective concentration (EC50) was 1 to 20 µM at hNLRP3, > 100 µM on TLR8 and > 100 µM at TLR7.
Take `Nc1nc2cc(F)c(F)cc2c2[nH]c(CCCO)nc12` [Compound 136]: the EC50 is 20 to 100 µM at hNLRP3, > 100 µM on TLR8 and > 100 µM on TLR7.
As to `Cc1ccccc1-c1ccc2c(c1)nc(N)c1nc(CCCO)[nH]c12` [Compound 199, 3-[4-amino-7-(2-methylphenyl)-1H-imidazo[4,5-c]quinolin-2-yl]propan-1-ol], the half-maximal effective concentration (EC50) on hNLRP3, on TLR8 and on TLR7 was > 100 µM in each case.
Consider `COc1cncc(-c2ccc3c(c2)nc(N)c2nc(CCCO)[nH]c23)c1` [Compound 175, 3-[4-amino-7-(5-methoxypyridin-3-yl)-1H-imidazo[4,5-c]quinolin-2-yl]propan-1-ol], for which the EC50 at hNLRP3, at TLR8 and on TLR7 was > 100 µM in each case.
On to `COc1cccc(-c2ccc3c(c2)nc(N)c2nc(CCCOCc4ccccc4)[nH]c23)n1` [Compound 247], for which the concentration giving a half-maximal response (EC50) was 1 to 20 µM on hNLRP3, > 100 µM on TLR8 and > 100 µM at TLR7.
As to `Nc1nc2cc(-c3cccnc3)ccc2c2[nH]c(CCCOCc3ccccc3)nc12` [Compound 146, 2-(3-phenylmethoxypropyl)-7-pyridin-3-yl-1H-imidazo[4,5-c]quinolin-4-amine], the EC50 at hNLRP3 was 20 to 100 µM; at TLR8, > 100 µM; at TLR7 it was > 100 µM.
As for `Cn1c(CCCO)nc2c(N)nc3ccccc3c21` [Compound 130], the concentration giving a half-maximal response (EC50) on hNLRP3 is 20 to 100 µM; on TLR8, > 100 µM; at TLR7 it was > 100 µM.
Consider `Nc1nc2cc(-c3ccccc3)ccc2c2[nH]c(CCCO)nc12` [Compound 145, 3-(4-amino-7-phenyl-1H-imidazo[4,5-c]quinolin-2-yl)propan-1-ol], for which the EC50 is ≤ 1 µM at hNLRP3, > 100 µM on TLR8 and > 100 µM on TLR7.
On to `Nc1nc2cc(-c3cc[nH]n3)ccc2c2[nH]c(CN3CC4COCC4C3)nc12` (stereo not shown) [Compound 232], for which the half-maximal effective concentration (EC50) at hNLRP3 is 1 to 20 µM; at TLR8, > 100 µM; at TLR7, > 100 µM.
As to `CCN(C(=O)OC(C)(C)C)C(C)(C)c1nc2c(N)nc3cc(-c4cc[nH]n4)ccc3c2n1Cc1ccc(OC)cc1` [Compound 252], the EC50 was 1 to 20 µM at hNLRP3, > 100 µM on TLR8 and > 100 µM at TLR7.
As for `CCN(C(=O)OC(C)(C)C)C(C)c1nc2c(N)nc3cc(-c4cc[nH]n4)ccc3c2n1Cc1ccc(OC)cc1` (stereo not shown) [Compound 242], the EC50 on hNLRP3 was 1 to 20 µM; at TLR8, > 100 µM; at TLR7, > 100 µM.
Take `COc1ccc(-c2ccc3c(c2)nc(N)c2nc(CCCO)[nH]c23)cc1` [Compound 211, 3-[4-amino-7-(4-methoxyphenyl)-1H-imidazo[4,5-c]quinolin-2-yl]propan-1-ol]: the concentration for a half-maximal effect (EC50) on hNLRP3, on TLR8 and at TLR7 was > 100 µM in each case.
As for `CN1CCC(c2nc3c(N)nc4ccccc4c3[nH]2)CC1` [Compound 228], the figures for the EC50 on hNLRP3, on TLR8 and on TLR7 were 20 to 100 µM, > 100 µM and > 100 µM, respectively.
Turning to `Nc1nc2cc(-n3cccn3)ccc2c2[nH]c(CN3CC4COCC4C3)nc12` (stereo not shown) [Compound 109], the EC50 on hNLRP3 is ≤ 1 µM.
As for `CCNC(C)(C)c1nc2c(N)nc3cc(-c4cc[nH]n4)ccc3c2[nH]1` [Compound 251], the concentration giving a half-maximal response (EC50) on hNLRP3 was 1 to 20 µM; on TLR8, > 100 µM; on TLR7 it was > 100 µM.
In the case of `N#Cc1ccccc1-c1ccc2c(c1)nc(N)c1nc(CCCO)[nH]c12` [Compound 202, 2-[4-amino-2-(3-hydroxypropyl)-1H-imidazo[4,5-c]quinolin-7-yl]benzonitrile], the concentration giving a half-maximal response (EC50) on hNLRP3, on TLR8 and at TLR7 was > 100 µM throughout.
Consider `CN(CCCc1nc2c(N)nc3cc(-c4cncnc4)ccc3c2[nH]1)C(=O)OC(C)(C)C` [Compound 123], for which the EC50 at hNLRP3 was 1 to 20 µM; on TLR8, > 100 µM; at TLR7 it was > 100 µM.
As for `CC(=O)c1ccc2c(c1)nc(N)c1nc(CCCO)[nH]c12` [Compound 119], the EC50 on hNLRP3 was 1 to 20 µM; at TLR8 it was > 100 µM; on TLR7 it was > 100 µM.
On to `Cc1cc(-c2ccc3c(c2)nc(N)c2nc(CCCO)[nH]c23)n(C)n1` [Compound 151, 3-[4-amino-7-(2,5-dimethylpyrazol-3-yl)-1H-imidazo[4,5-c]quinolin-2-yl]propan-1-ol], for which the figures for the EC50 on hNLRP3, on TLR8 and on TLR7 were 1 to 20 µM, > 100 µM and > 100 µM, respectively.
For the molecule `CN(C)c1ncc(-c2ccc3c(c2)nc(N)c2nc(CCCO)[nH]c23)cn1` [Compound 156, 3-[4-amino-7-[2-(dimethylamino)pyrimidin-5-yl]-1H-imidazo[4,5-c]quinolin-2-yl]propan-1-ol], the EC50 on hNLRP3, at TLR8 and at TLR7 was > 100 µM in each case.
Consider `Cn1cc(-c2ccc3c(c2)nc(N)c2nc(CCCO)[nH]c23)cn1` [Compound 193, 3-[4-amino-7-(1-methylpyrazol-4-yl)-1H-imidazo[4,5-c]quinolin-2-yl]propan-1-ol], for which the results for the concentration for a half-maximal effect (EC50) at hNLRP3, at TLR8 and at TLR7 were 20 to 100 µM, > 100 µM and > 100 µM, respectively.
Molecule `Nc1nc2cc(-c3cccs3)ccc2c2[nH]c(CCCOCc3ccccc3)nc12` [Compound 243] displayed an EC50 at hNLRP3 of 1 to 20 µM.
Same read-out and setting: the result for `Nc1nc2cc(Br)ccc2c2[nH]c(C3CCC(O)CC3)nc12` (stereo not shown) [Compound 116] reads 1 to 20 µM.
Regarding `Nc1nc2cc(C3CCNC3)ccc2c2[nH]c(CCCO)nc12` (stereo not shown) [Compound 197, 3-(4-amino-7-pyrrolidin-3-yl-1H-imidazo[4,5-c]quinolin-2-yl)propan-1-ol], the concentration for a half-maximal effect (EC50) on hNLRP3 and on TLR7 was > 100 µM in each case.
For `Nc1nc2cc(C3CCNCC3)ccc2c2[nH]c(CCCO)nc12` [Compound 198, 3-(4-amino-7-piperidin-4-yl-1H-imidazo[4,5-c]quinolin-2-yl)propan-1-ol], the concentration giving a half-maximal response (EC50) at hNLRP3 and on TLR7 was > 100 µM each time.
